Data published in patent US8575127B2, “Antithrombotic diadenosine tetraphosphates and related analogs” (GLSynthesis Inc., priority 2008, dated 2013).

System: ADP-induced human platelet aggregation
Assay: ADP-induced platelet aggregation in platelet-rich human plasma (optical aggregometry)
Format: cell-based
Conditions: inhibition of 3 μM ADP-induced human platelet aggregation, average of 2 experiments
Description: Platelet aggregation was initiated by adding ADP (3 μM) in the presence or absence of various concentrations of test compound to platelet-rich human plasma, and the aggregation response was recorded for six minutes in a Chrono-log® aggregometer running the Aggro/Link software (Chrono-log®, Havertown, Pa.).

| Molecule | IC50 |
| --- | --- |
| CSc1nc(N)c2ncn(C3OC(COP(=O)(O)OP(=O)(O)OP(=O)(O)OP(=O)(O)OCC4OC(n5cnc6c(N)nc(SC)nc65)C(O)C4O)C(O)C3O)c2n1 (stereo not shown) [Compound 2, tetrasodium P^1,P^4-bis-(2-methylthio-5′-adenosine)tetraphosphate] | 89 ± 38 nM |
| CNc1ncnc2c1ncn2[C@@H]1O[C@H](COP(O)(=S)OP(=O)(O)C(Cl)P(=O)(O)OP(O)(=S)OC[C@H]2O[C@@H](n3cnc4c(NC)ncnc43)[C@H](O)[C@@H]2O)[C@@H](O)[C@H]1O (stereo partly shown) [Compound 8, P^1,P^4-bis(N^6-methyl-5′-adenosine)-P^1,P^4-dithio-P^2,P^3-monochloromethylenetetraphosphate] | 3520 ± 830 nM |
| CSc1nc(N)c2ncn(C3OC(COP(O)(=S)OP(=O)(O)OP(=O)(O)OP(O)(=S)OCC4OC(n5cnc6c(N)nc(SC)nc65)C(O)C4O)C(O)C3O)c2n1 (stereo not shown) [Compound 10, P^1,P^4-bis-(2-methylthio-5′-adenosine)-P^1,P^4-dithiotetraphosphate] | 50 ± 37 nM |
| CCCNc1ncnc2c1ncn2C1OC(COP(O)(=S)OP(=O)(O)C(Cl)P(=O)(O)OP(O)(=S)OCC2OC(n3cnc4c(NCCC)ncnc43)C(O)C2O)C(O)C1O (stereo not shown) [Compound 12, P^1,P^4-bis-(N^6-propyl-5′-adenosine)-P^1,P^4-dithio-P^2,P^3-monochloromethylenetetraphosphate] | 5560 ± 1700 nM |
| CSc1nc(N)c2ncn(C3OC(COP(O)(=S)OP(=O)(O)C(Cl)P(=O)(O)OP(O)(=S)OCC4OC(n5cnc6c(N)nc(SC)nc65)C(O)C4O)C(O)C3O)c2n1 (stereo not shown) [Compound 17, P^1,P^4-bis-(2-methylthio-5′-adenosine)-P^1,P^4-dithio-P^2, P^3-monochloromethylenetetraphosphate] | 13 ± 10 nM |
| CNc1nc(SC)nc2c1ncn2C1OC(COP(O)(=S)OP(=O)(O)C(Cl)P(=O)(O)OP(O)(=S)OCC2OC(n3cnc4c(NC)nc(SC)nc43)C(O)C2O)C(O)C1O (stereo not shown) [Compound 22, P^1,P^4-bis(N^6-methyl-2-methylthio-5′-adenosine)-P^1,P^4-dithio-P^2,P^3-monochloromethylenetetraphosphate] | 260 nM |
| CCCSc1nc(N)c2ncn([C@@H]3O[C@H](COP(O)(=S)OP(=O)(O)C(Cl)P(=O)(O)OP(O)(=S)OC[C@H]4O[C@@H](n5cnc6c(N)nc(SCCC)nc65)[C@H](O)[C@@H]4O)[C@@H](O)[C@H]3O)c2n1 (stereo partly shown) [Compound 32, P^1,P^4-bis(2-propylthio-5′-adenosine)-P^1,P^4-dithio-P^2,P^3-monochloromethylenetetraphosphate] | 15 ± 10 nM |
| Nc1nc(I)nc2c1ncn2[C@@H]1O[C@H](COP(O)(=S)OP(=O)(O)C(Cl)P(=O)(O)OP(O)(=S)OC[C@H]2O[C@@H](n3cnc4c(N)nc(I)nc43)[C@H](O)[C@@H]2O)[C@@H](O)[C@H]1O (stereo partly shown) [Compound 40, P^1,P^1-bis-(2-iodo-5′-adenosine)-P^1,P^4-dithio-P^2, P^3-monochloromethylenetetraphosphate] | 21 ± 6 nM |
| Nc1nc(Cl)nc2c1ncn2C1OC(COP(O)(=S)OP(=O)(O)C(Cl)P(=O)(O)OP(O)(=S)OCC2OC(n3cnc4c(N)nc(Cl)nc43)C(O)C2O)C(O)C1O (stereo not shown) [Compound 44, P^1,P^4-bis(2-chloro-5′-adenosine)-P^1,P^4-dithio-P^2,P^3-monochloromethylenetetraphosphate] | 98 ± 4 nM |
| Bis-adenosine tetraphosphate [Ap4A, reference compound] | 9800 ± 2800 nM |
